Experimental data: patent US6552077B2, “Albumin-binding compounds that prevent nonenzymatic glycation and that may be used for treatment of glycation-related pathologies” (Exocell, Inc., priority 1996, dated 2003)
Counter-ions that a name gives are not always drawn.

Legend:
Human albumin [1] = target: T1, Human albumin (Homo sapiens, UniProt P02768); assay: Prevention of albumin glycation at physiologically significant sites (ELISA with anti-glycated albumin monoclonal antibody); type: biochemical; details: for IC50: human albumin 10 mg/ml, 40 mM glucose, 4 days, compound 1-1000 μM
Description: The performance of paired incubations allowed comparison of the amount of glycated albumin formed under control (0 mM glucose), stimulated (40 mM glucose) and inhibited (test compound plus glucose) conditions.

cyclo-oxygenase = target: T2, cyclo-oxygenase (Bos taurus, UniProt O62664); assay: Cyclo-oxygenase inhibition, conversion of arachidonic acid to prostaglandin E2 in bovine seminal vesicle homogenates; type: biochemical; details: arachidonic acid to prostaglandin E2, 1-30 minutes, read-out: COX Inhibition IC50
T2 construct: from tissue; host or cells: bovine seminal vesicles (cellular homogenate)
T2 sequence (O62664 25-600): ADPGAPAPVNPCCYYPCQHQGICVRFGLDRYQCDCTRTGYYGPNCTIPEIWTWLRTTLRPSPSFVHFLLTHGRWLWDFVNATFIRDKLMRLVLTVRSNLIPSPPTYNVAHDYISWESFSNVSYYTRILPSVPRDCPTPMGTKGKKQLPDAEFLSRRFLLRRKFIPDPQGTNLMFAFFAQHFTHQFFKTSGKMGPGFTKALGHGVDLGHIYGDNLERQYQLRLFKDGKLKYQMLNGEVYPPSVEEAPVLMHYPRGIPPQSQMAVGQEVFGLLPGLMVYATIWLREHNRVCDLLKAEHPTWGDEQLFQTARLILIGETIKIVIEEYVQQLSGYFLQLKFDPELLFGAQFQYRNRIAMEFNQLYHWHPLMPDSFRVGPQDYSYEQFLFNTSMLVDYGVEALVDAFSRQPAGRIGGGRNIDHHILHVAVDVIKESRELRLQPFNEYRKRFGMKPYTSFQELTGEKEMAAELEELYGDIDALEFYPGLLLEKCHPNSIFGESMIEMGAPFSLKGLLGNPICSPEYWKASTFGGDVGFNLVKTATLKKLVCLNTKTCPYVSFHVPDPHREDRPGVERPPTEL
Description: Cellular homogenates of bovine seminal vesicles were incubated with arachidonic acid and the production of prostaglandins was monitored.

Human albumin [2] = target: T1, Human albumin; assay: Anti-glycation activity of 2-(phenylamino)phenylacetic acids (glycated albumin ELISA); type: biochemical; details: for IC50: human albumin 10 mg/ml, 0-50 mM glucose, 48-144 hours, 37° C., read-out: Glycation Inhibition IC50; for Antiglycation IC50 versus COX Inhibition IC50 (ratio): ratio of glycation IC50 to cyclo-oxygenase IC50
Description: After dialysis to remove free glucose and compound, the amount of glycated albumin formed was determined by enzyme-linked immunosorbent assay using the monoclonal antibodies known to specifically react with Amadori-glucose adducts in glycated albumin and to be unreactive with the nonglycated protein. The presence of glucose in the incubations promotes the nonenzymatic glycation of albumin, and the performance of paired incubations allows comparison of the amount of glycated albumin formed under control (0 glucose), stimulated (25-50 mM glucose), and inhibited (compound plus glucose) conditions.

glycated albumin = target: T3, glycated albumin (Mus musculus, UniProt P07724); assay: Prevention of albumin glycation in vivo, plasma glycated albumin by ELISA; details: mice; for Glycated Albumin, Percent change: post vs pre-treatment; for Glycated Albumin, Post-treatment: four hours after last dosing; for Glycated Albumin, Pre-treatment: before treatment
T3 construct: from tissue; host or cells: mouse plasma (in vivo dosing)
Text: Blood was taken before the initiation of treatment and four hours after the last dosing at the conclusion of the treatment.

Mice = assay: Urine protein excretion after 8 weeks of treatment; type: in vivo
Description: Mice were treated for 8 weeks with 10 mg/kg/day of 2-(3-chlorophenylamino) phenylacetic acid in divided doses. Urine samples were obtained at the initiation and termination of treatment for examination of protein excretion, which measures vascular dysfunction that is associated with glycation-related pathology As shown below, the reduction in glycated albumin was associated with a reduction in urine protein excretion.

[3] = 5 mg/kg/day intraperitoneal for 5 days
[4] = 5 mg/kg/day intraperitoneal in divided doses for 5 days
[5] = 10 mg/kg/day intraperitoneal for 5 days
[6] = 10 mg/kg/day intraperitoneal in divided doses for 5 days

T3 sequence (P07724 25-608): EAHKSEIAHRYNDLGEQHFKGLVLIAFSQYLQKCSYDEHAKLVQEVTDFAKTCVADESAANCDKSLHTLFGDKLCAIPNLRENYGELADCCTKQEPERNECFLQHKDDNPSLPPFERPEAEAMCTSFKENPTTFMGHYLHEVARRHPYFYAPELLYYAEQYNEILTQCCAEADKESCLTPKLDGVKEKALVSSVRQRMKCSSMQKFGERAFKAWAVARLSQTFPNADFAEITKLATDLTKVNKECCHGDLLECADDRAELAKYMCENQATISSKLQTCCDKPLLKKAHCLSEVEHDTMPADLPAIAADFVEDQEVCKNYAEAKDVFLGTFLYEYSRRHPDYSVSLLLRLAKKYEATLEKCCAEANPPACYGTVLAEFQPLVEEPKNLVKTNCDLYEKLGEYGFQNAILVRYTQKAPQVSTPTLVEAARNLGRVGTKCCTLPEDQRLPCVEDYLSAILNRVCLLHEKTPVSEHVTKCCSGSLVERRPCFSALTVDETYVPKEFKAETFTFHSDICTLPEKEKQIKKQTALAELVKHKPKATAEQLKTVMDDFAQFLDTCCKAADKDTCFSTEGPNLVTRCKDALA
T1 sequence (P02768 25-609): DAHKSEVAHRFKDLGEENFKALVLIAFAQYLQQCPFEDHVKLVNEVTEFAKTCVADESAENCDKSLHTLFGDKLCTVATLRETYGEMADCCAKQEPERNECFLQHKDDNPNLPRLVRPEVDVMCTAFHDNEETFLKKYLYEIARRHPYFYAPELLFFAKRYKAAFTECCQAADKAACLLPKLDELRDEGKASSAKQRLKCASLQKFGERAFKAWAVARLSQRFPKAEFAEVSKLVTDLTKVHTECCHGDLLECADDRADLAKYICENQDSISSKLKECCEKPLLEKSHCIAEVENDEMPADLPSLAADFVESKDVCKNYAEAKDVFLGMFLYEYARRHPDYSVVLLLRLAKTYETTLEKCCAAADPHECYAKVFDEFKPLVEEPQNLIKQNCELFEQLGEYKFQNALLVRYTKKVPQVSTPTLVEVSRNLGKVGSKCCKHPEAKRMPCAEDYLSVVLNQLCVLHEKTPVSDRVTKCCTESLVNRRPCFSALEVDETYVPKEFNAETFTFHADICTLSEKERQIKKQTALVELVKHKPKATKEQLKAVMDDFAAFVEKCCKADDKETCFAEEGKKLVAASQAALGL

Row | SMILES | IC50 (cyclo-oxygenase) [µM] | IC50 (Human albumin [2]) [µM] | Antiglycation IC50 versus COX Inhibition IC50 (ratio) (Human albumin [2]) | other results
1 | CC1=C(CC(=O)O)c2cc(F)ccc2/C1=C\c1ccc([S+](C)[O-])cc1 (stereo not drawn) [[Z]-5-fluoro-2-methyl-1 [p-(methylsulfinyl)phenyl] (methylene-1H-indene-3-acetic acid, reference compound] | – | – | – | IC50 (Human albumin [1]): 22000 µM
2 | O=C(O)Cc1ccccc1Nc1ccccc1 [Example 3, 2-[(phenyl)amino]phenylacetic acid] | 288 | 155 | 0.54 | –
3 | O=C(O)Cc1ccccc1Nc1ccccc1Cl [Example 4, 2-[(2-chlorophenyl)amino]phenylacetic acid] | 42 | 10 | 0.24 | Glycated Albumin, Percent change (glycated albumin; [3]): −32.5%; Glycated Albumin, Post-treatment (glycated albumin; [4]): 500 µg/mL; Glycated Albumin, Percent change (glycated albumin; [5]): −47.7%; Glycated Albumin, Post-treatment (glycated albumin; [6]): 426 µg/mL; Glycated Albumin, Pre-treatment (glycated albumin; 5 mg/kg/day group): 741 µg/mL; Glycated Albumin, Pre-treatment (glycated albumin; 10 mg/kg/day group): 815 µg/mL
4 | Cc1cccc(C)c1Nc1ccccc1CC(=O)O [Example 13, 2-[(2,6-dimethylphenyl)amino]phenylacetic Acid] | 6 | 112 | 19.0 | –
5 | O=C(O)Cc1ccccc1Nc1ccc(Cl)c(Cl)c1 [Example 11, 2-[(3,4-dichlorophenyl)amino]phenylacetic acid] | 141 | 2.5 | 0.02 | –
6 | O=C(O)Cc1ccccc1Nc1cccc(Cl)c1 (as salt: salt) [Example 5, 2-[(3-chlorophenyl)amino]phenylacetic acid] | – | – | – | melting point: 102 to 103 °C
7 | O=C(O)Cc1ccccc1Nc1ccc(Cl)cc1Cl [Example 8, 2-[(2,4-dichlorophenyl)amino]phenylacetic acid] | 71 | 63 | 0.90 | –
8 | O=C(O)Cc1ccccc1Nc1ccc(Cl)cc1 [Example 6, 2-[(4-chlorophenyl)amino]phenylacetic acid] | 98 | 11 | 0.11 | –
9 | O=C(O)Cc1ccccc1Nc1cccc(Cl)c1 [Example 5, 2-[(3-chlorophenyl)amino]phenylacetic acid] | 600 | 50 | 0.08 | Urine protein, Termination (Mice; after 8 weeks of 10 mg/kg/day in divided doses): 2.7 μg/24 hrs; Urine protein, Initiation (Mice; at initiation of treatment (baseline)): 7.6 μg/24 hrs; ability to prevent glycation of the physiologically important sites (Human albumin [1]; comparison among the compounds of Table 1): greatest ability to prevent glycation; IC50 (Human albumin [1]): 15 µM; Glycated Albumin, Percent change (glycated albumin; [3]): −18.4%; Glycated Albumin, Post-treatment (glycated albumin; [4]): 697 µg/mL; Glycated Albumin, Percent change (glycated albumin; [5]): −45.6%; Glycated Albumin, Post-treatment (glycated albumin; [6]): 352 µg/mL; Glycated Albumin, Pre-treatment (glycated albumin; 5 mg/kg/day group): 854 µg/mL; Glycated Albumin, Pre-treatment (glycated albumin; 10 mg/kg/day group): 647 µg/mL
